{"source": "ChEMBL document CHEMBL1201862", "about": "“PubChem BioAssay data set” (2004)", "test_in_all_cases": "growth of human tumour cells (NCI), 48 h", "key": {"SK-MEL-5": {"system": "SK-MEL-5"}, "UACC-62": {"system": "UACC-62"}, "OVCAR-5": {"system": "OVCAR-5"}, "HOP-62": {"system": "HOP-62"}, "T47D": {"system": "T47D"}, "SK-OV-3": {"system": "SK-OV-3"}, "A549": {"system": "A549"}, "SR": {"system": "SR"}, "KM12": {"system": "KM12"}, "DU-145": {"system": "DU-145"}, "ACHN": {"system": "ACHN"}, "SK-MEL-2": {"system": "SK-MEL-2"}, "SN12C": {"system": "SN12C"}, "CCRF-CEM": {"system": "CCRF-CEM"}, "MCF7": {"system": "MCF7"}, "NCI-H522": {"system": "NCI-H522"}, "RXF 393": {"system": "RXF 393"}, "Malme-3M": {"system": "Malme-3M"}, "U-251": {"system": "U-251"}, "MOLT-4": {"system": "MOLT-4"}, "M14": {"system": "M14"}, "SNB-19": {"system": "SNB-19"}, "OVCAR-4": {"system": "OVCAR-4"}, "RPMI-8226": {"system": "RPMI-8226"}, "UO-31": {"system": "UO-31"}, "SF-268": {"system": "SF-268"}, "OVCAR-8": {"system": "OVCAR-8"}, "HCT-116": {"system": "HCT-116"}, "NCI-H226": {"system": "NCI-H226"}, "EKVX": {"system": "EKVX"}, "MDA-MB-231": {"system": "MDA-MB-231"}, "CAKI-1": {"system": "CAKI-1"}, "OVCAR-3": {"system": "OVCAR-3"}, "BT-549": {"system": "BT-549"}, "A498": {"system": "A498"}, "Hs-578T": {"system": "Hs-578T"}, "COLO 205": {"system": "COLO 205"}, "SK-MEL-28": {"system": "SK-MEL-28"}, "NCI/ADR-RES": {"system": "NCI/ADR-RES"}, "SNB-75": {"system": "SNB-75"}, "SW-620": {"system": "SW-620"}, "HT-29": {"system": "HT-29"}, "NCI-H23": {"system": "NCI-H23"}, "HCC 2998": {"system": "HCC 2998"}, "LOX IMVI": {"system": "LOX IMVI"}, "HL-60": {"system": "HL-60"}, "NCI-H460": {"system": "NCI-H460"}, "SF-295": {"system": "SF-295"}, "MDA-N": {"system": "MDA-N"}, "MDA-MB-435": {"system": "MDA-MB-435"}, "IGROV-1": {"system": "IGROV-1"}, "K562": {"system": "K562"}, "PC-3": {"system": "PC-3"}, "HCT-15": {"system": "HCT-15"}, "786-0": {"system": "786-0"}}, "note": "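How tested: cells in 96-well plates exposed to compound for 48 hours at five concentrations. Here, GI50 denotes the concentration required for 50% inhibition of growth.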 Calls of active or inactive are those of the source. Cut-off read from the data, not from the text of the source: active = GI50 up to about 1.1 µM and inactive = higher."}
{"smiles": "C=C(CCOC)CCC1CCCCC/C1=N\\N(C)C", "note": "(stereo not given)", "values": [{"measurement": "GI50", "setting": "SK-MEL-5", "result": "> 100 µM (inactive)"}, {"measurement": "GI50", "setting": "UACC-62", "result": "> 100 µM (inactive)"}, {"measurement": "GI50", "setting": "OVCAR-5", "result": "> 100 µM (inactive)"}, {"measurement": "GI50", "setting": "HOP-62", "result": "> 100 µM (inactive)"}, {"measurement": "GI50", "setting": "T47D", "result": "> 100 µM (inactive)"}, {"measurement": "GI50", "setting": "SK-OV-3", "result": "> 100 µM (inactive)"}, {"measurement": "GI50", "setting": "A549", "result": "> 100 µM (inactive)"}, {"measurement": "GI50", "setting": "SR", "result": "> 100 µM (inactive)"}, {"measurement": "GI50", "setting": "KM12", "result": "> 100 µM (inactive)"}, {"measurement": "GI50", "setting": "DU-145", "result": "> 100 µM (inactive)"}, {"measurement": "GI50", "setting": "ACHN", "result": "> 100 µM (inactive)"}, {"measurement": "GI50", "setting": "SK-MEL-2", "result": "> 100 µM (inactive)"}, {"measurement": "GI50", "setting": "SN12C", "result": "> 100 µM (inactive)"}, {"measurement": "GI50", "setting": "CCRF-CEM", "result": "> 100 µM (inactive)"}, {"measurement": "GI50", "setting": "MCF7", "result": "> 100 µM (inactive)"}, {"measurement": "GI50", "setting": "NCI-H522", "result": "> 100 µM (inactive)"}, {"measurement": "GI50", "setting": "RXF 393", "result": "> 100 µM (inactive)"}, {"measurement": "GI50", "setting": "Malme-3M", "result": "> 100 µM (inactive)"}, {"measurement": "GI50", "setting": "U-251", "result": "> 100 µM (inactive)"}, {"measurement": "GI50", "setting": "MOLT-4", "result": "> 100 µM (inactive)"}, {"measurement": "GI50", "setting": "M14", "result": "> 100 µM (inactive)"}, {"measurement": "GI50", "setting": "SNB-19", "result": "> 100 µM (inactive)"}, {"measurement": "GI50", "setting": "OVCAR-4", "result": "> 100 µM (inactive)"}, {"measurement": "GI50", "setting": "RPMI-8226", "result": "> 100 µM (inactive)"}, {"measurement": "GI50", "setting": "UO-31", "result": "> 100 µM (inactive)"}, {"measurement": "GI50", "setting": "SF-268", "result": "> 100 µM (inactive)"}, {"measurement": "GI50", "setting": "OVCAR-8", "result": "> 100 µM (inactive)"}, {"measurement": "GI50", "setting": "HCT-116", "result": "> 100 µM (inactive)"}, {"measurement": "GI50", "setting": "NCI-H226", "result": "> 100 µM (inactive)"}, {"measurement": "GI50", "setting": "EKVX", "result": "> 100 µM (inactive)"}, {"measurement": "GI50", "setting": "MDA-MB-231", "result": "> 100 µM (inactive)"}, {"measurement": "GI50", "setting": "CAKI-1", "result": "> 100 µM (inactive)"}, {"measurement": "GI50", "setting": "OVCAR-3", "result": "> 100 µM (inactive)"}, {"measurement": "GI50", "setting": "BT-549", "result": "> 100 µM (inactive)"}, {"measurement": "GI50", "setting": "A498", "result": "> 100 µM (inactive)"}, {"measurement": "GI50", "setting": "Hs-578T", "result": "> 100 µM (inactive)"}, {"measurement": "GI50", "setting": "COLO 205", "result": "> 100 µM (inactive)"}, {"measurement": "GI50", "setting": "SK-MEL-28", "result": "> 100 µM (inactive)"}, {"measurement": "GI50", "setting": "NCI/ADR-RES", "result": "> 100 µM (inactive)"}, {"measurement": "GI50", "setting": "SNB-75", "result": "> 100 µM (inactive)"}, {"measurement": "GI50", "setting": "SW-620", "result": "> 100 µM (inactive)"}, {"measurement": "GI50", "setting": "HT-29", "result": "> 100 µM (inactive)"}, {"measurement": "GI50", "setting": "NCI-H23", "result": "> 100 µM (inactive)"}, {"measurement": "GI50", "setting": "HCC 2998", "result": "> 100 µM (inactive)"}, {"measurement": "GI50", "setting": "LOX IMVI", "result": "> 100 µM (inactive)"}, {"measurement": "GI50", "setting": "HL-60", "result": "> 100 µM (inactive)"}, {"measurement": "GI50", "setting": "NCI-H460", "result": "> 100 µM (inactive)"}, {"measurement": "GI50", "setting": "SF-295", "result": "> 100 µM (inactive)"}, {"measurement": "GI50", "setting": "MDA-N", "result": "> 100 µM (inactive)"}, {"measurement": "GI50", "setting": "MDA-MB-435", "result": "> 100 µM (inactive)"}, {"measurement": "GI50", "setting": "IGROV-1", "result": "> 100 µM (inactive)"}, {"measurement": "GI50", "setting": "K562", "result": "> 100 µM (inactive)"}, {"measurement": "GI50", "setting": "PC-3", "result": "> 100 µM (inactive)"}, {"measurement": "GI50", "setting": "HCT-15", "result": "> 100", "unit": "µM"}, {"measurement": "GI50", "setting": "786-0", "result": "> 100 µM (inactive)"}]}
